In publication PMC4894417, “Quantitative High-Throughput Profiling of Environmental Chemicals and Drugs that Modulate Farnesoid X Receptor” (Scientific Reports, 2014):
Like-named read-outs stand apart in the source and are kept apart here.

Assays:
androgen receptor (AR) = androgen receptor (AR) (Homo sapiens, UniProt P10275); assay: AR-bla reporter gene assay (agonist and antagonist modes)
[1] = molecular target: estrogen receptor alpha (ERα) (Homo sapiens, UniProt P03372); assay: ERα-bla reporter gene assay (agonist and antagonist modes)
[2] = system: FXR-UAS-bla HEK293T cells; assay: Cell viability assay (CellTiter Glo) in the same well as FXR-bla
FXR-LBD [3] = molecular target: T1, FXR-LBD (Homo sapiens, UniProt Q96RI1); assay: FXR TR-FRET coactivator recruitment assay, agonist mode; type: biochemical; conditions: Table 1; coactivator SRC2-2 recruitment
T1 construct: The glutathione S-transferase (GST)-tagged FXR-LBD protein; purchased Life Technologies
T1 sequence (Q96RI1 262-486 limits assumed): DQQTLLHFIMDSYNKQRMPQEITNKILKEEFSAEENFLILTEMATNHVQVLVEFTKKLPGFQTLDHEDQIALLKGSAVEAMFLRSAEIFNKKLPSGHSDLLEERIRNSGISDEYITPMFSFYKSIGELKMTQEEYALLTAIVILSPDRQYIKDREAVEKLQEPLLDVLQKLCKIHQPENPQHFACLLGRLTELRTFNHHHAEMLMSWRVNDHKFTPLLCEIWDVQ

vitamin D receptor (VDR) = vitamin D receptor (VDR) (Homo sapiens, UniProt P11473); assay: VDR-bla reporter gene assay (agonist and antagonist modes)
[4] = molecular target: peroxisome proliferator-activated receptor delta (PPARδ) (Homo sapiens, UniProt Q03181); assay: PPARδ-bla reporter gene assay (agonist and antagonist modes)
human FXR [5] = molecular target: T2, human FXR (Homo sapiens, UniProt Q96RI1); assay: FXR-bla reporter gene assay, antagonist mode (CDCA-induced transactivation)
FXR-LBD [6] = molecular target: T1, FXR-LBD; assay: FXR TR-FRET coactivator recruitment assay, antagonist mode (50 μM CDCA); type: biochemical; conditions: Table 1; in the presence of 50 μM CDCA
human FXR [7] = molecular target: T2, human FXR; assay: FXR-bla reporter gene assay, agonist mode (qHTS)
[8] = molecular target: peroxisome proliferator-activated receptor gamma (PPARγ) (Homo sapiens, UniProt P37231); assay: PPARγ-bla reporter gene assay (agonist and antagonist modes)
[9] = Cell viability assay (CellTiter Glo) in the same well as FXR-bla; conditions: human, FXR-UAS-bla HEK293T cells

T2 sequence (Q96RI1 with tags, fused parts or gaps limits assumed): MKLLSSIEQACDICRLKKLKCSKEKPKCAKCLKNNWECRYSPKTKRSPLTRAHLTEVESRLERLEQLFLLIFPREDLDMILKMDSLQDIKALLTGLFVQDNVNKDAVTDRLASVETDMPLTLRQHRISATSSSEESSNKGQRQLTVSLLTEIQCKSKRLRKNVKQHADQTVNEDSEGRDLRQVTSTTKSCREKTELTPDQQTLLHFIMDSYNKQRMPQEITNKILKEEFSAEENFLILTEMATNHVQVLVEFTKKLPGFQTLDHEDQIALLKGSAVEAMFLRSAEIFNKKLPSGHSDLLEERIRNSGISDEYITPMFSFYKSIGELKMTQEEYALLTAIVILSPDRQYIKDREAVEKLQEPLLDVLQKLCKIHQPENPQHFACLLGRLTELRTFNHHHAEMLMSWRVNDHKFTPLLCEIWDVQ
peroxisome proliferator-activated receptor delta (PPARδ), sequence (Q03181 with tags, fused parts or gaps limits assumed): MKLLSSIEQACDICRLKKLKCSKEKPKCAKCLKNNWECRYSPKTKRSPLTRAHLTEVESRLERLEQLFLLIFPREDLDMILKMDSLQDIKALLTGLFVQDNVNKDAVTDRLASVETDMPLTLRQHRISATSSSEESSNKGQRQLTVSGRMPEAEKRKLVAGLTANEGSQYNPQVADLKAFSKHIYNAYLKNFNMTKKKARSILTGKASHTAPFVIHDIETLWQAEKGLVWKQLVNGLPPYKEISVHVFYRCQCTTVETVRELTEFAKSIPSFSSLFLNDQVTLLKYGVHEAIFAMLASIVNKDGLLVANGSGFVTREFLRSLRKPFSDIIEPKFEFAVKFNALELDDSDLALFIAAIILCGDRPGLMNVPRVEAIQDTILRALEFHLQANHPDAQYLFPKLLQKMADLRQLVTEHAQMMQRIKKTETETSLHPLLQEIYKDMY
estrogen receptor alpha (ERα), sequence (P03372 with tags, fused parts or gaps limits assumed): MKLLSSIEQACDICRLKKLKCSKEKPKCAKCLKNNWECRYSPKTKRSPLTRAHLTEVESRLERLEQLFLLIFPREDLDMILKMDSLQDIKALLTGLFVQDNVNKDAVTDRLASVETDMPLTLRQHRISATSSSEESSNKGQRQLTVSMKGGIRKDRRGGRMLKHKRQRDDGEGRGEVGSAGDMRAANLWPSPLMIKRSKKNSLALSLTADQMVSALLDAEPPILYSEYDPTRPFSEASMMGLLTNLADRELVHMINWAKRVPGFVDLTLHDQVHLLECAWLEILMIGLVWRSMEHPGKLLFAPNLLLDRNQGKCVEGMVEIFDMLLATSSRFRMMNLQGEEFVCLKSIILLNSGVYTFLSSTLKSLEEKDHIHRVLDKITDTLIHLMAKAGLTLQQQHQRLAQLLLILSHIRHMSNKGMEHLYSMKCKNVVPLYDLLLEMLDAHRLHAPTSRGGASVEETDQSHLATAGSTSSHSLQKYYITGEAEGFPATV
androgen receptor (AR), sequence (P10275 with tags, fused parts or gaps limits assumed): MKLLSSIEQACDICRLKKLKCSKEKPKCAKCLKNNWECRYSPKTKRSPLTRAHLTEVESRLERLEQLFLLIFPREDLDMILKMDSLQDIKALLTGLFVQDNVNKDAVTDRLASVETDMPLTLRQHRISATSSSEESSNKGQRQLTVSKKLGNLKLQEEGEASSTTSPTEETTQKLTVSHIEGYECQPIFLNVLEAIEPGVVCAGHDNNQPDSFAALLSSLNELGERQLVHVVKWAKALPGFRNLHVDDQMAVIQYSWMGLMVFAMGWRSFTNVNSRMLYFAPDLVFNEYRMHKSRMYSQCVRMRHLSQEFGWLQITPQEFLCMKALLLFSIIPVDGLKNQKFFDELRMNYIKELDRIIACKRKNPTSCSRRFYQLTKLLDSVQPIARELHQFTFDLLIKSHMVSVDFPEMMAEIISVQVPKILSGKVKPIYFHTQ
vitamin D receptor (VDR), sequence (P11473 with tags, fused parts or gaps limits assumed): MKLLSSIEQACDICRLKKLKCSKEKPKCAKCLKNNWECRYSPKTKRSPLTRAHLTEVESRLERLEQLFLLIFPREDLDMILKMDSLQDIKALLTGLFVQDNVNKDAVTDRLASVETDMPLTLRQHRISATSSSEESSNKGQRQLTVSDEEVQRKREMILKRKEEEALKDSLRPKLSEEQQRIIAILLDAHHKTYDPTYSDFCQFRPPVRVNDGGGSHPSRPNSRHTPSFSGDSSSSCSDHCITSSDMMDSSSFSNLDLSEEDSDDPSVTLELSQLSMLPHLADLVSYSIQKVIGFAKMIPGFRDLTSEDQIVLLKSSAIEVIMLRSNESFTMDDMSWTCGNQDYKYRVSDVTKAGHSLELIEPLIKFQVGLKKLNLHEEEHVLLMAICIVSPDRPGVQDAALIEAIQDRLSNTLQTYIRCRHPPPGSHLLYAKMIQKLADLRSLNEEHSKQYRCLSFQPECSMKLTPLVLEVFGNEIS
peroxisome proliferator-activated receptor gamma (PPARγ), sequence (P37231 with tags, fused parts or gaps limits assumed): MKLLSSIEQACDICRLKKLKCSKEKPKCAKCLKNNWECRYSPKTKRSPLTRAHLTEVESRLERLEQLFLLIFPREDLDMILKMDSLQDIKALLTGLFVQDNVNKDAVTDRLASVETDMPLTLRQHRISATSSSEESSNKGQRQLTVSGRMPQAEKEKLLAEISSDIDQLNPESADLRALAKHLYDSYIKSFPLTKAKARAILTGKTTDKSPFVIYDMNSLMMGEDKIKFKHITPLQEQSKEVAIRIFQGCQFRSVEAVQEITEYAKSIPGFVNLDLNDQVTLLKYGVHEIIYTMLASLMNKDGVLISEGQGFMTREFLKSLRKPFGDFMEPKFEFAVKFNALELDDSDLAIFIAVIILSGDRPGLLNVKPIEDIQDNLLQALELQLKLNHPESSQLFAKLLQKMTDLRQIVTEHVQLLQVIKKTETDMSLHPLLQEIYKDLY

CC(=O)[C@]1(O)Cc2c(O)c3c(c(O)c2[C@@H](O[C@H]2C[C@H](N)[C@H](O)[C@H](C)O2)C1)C(=O)c1ccccc1C3=O [Idarubicin]
AR activity (androgen receptor (AR)): mixed agonist/antagonist response | ERα activity [1]: mixed agonist/antagonist response | Cell viability IC50 ([2]; Table 1, mean ± SD of 3 experiments): Inactive | FXR TR-FRET, agonist EC50 (FXR-LBD [3]): Inactive | VDR activity (vitamin D receptor (VDR)): antagonist response | PPARδ activity [4]: antagonist response | FXR-bla, antagonist Efficacy (human FXR [5]; Table 1, inhibition as percent of positive control (guggulsterone), 50 μM CDCA): 107 ± 3% | FXR antagonist Efficacy (human FXR [5]; Table S3, 50 µM CDCA): 105 ± 11% | FXR TR-FRET, antagonist Efficacy (FXR-LBD [6]): 162 ± 41% | EC50 (human FXR [7]): 1.37 ± 0.38 µM | FXR-bla, agonist Efficacy (human FXR [7]; Table 1, activation as percent of positive control (CDCA 100%), mean ± SD of 3): 42 ± 16% | FXR agonist EC50 (human FXR [7]; Table S3, FXR-active drugs): Inactive | PPARγ activity [8]: antagonist response

CCOC(=O)C1=C(C)NC(C)=C(C(=O)OCC)C1c1ccccc1/C=C/C(=O)OC(C)(C)C [Lacidipine]
AR activity (androgen receptor (AR)): activated | ERα activity [1]: activated | Cytotoxicity Efficacy ([2]; Table S1, primary screening): 56 ± 39% | IC50 at 16 h [9]: 54.5 ± 39.5 µM | PPARδ activity [4]: activated | IC50 (human FXR [5]): 32.3 ± 2.1 µM | FXR antagonist mode Efficacy (human FXR [5]; Table S1, primary screening, 50 µM CDCA): 55 ± 20% | EC50 (human FXR [7]): 23.5 ± 10.1 µM | FXR agonist activity (human FXR [7]; FXR-bla assay): activated | FXR agonist mode Efficacy (human FXR [7]; Table S1, primary screening, CDCA 100%): 70 ± 41%

COc1cccc2c1C(=O)c1c(O)c3c(c(O)c1C2=O)C[C@@](O)(C(=O)CO)C[C@@H]3O[C@H]1C[C@H](N)[C@H](O[C@@H]2CCCCO2)[C@H](C)O1 [Pirarubicin]
AR activity (androgen receptor (AR)): mixed agonist/antagonist response | ERα activity [1]: mixed agonist/antagonist response | Cytotoxicity IC50 ([2]; Table S1, primary screening): Inactive | VDR activity (vitamin D receptor (VDR)): antagonist response | PPARδ activity [4]: antagonist response | FXR antagonist mode Efficacy (human FXR [5]): 60 ± 23% | IC50 (human FXR [5]; FXR antagonist mode IC50): 21.3 ± 15.6 µM | EC50 (human FXR [7]): 16.9 ± 11 µM | FXR agonist mode Efficacy (human FXR [7]): 20 ± 9% | PPARγ activity [8]: antagonist response
